In article PMC5218480 (PLoS ONE, 2017):

Tested on: MV-4-11 cells
Assay: Gene expression microarray analysis (Affymetrix PrimeView) and GSEA
Assay type: cell-based, human
Set-up: RFU PODN (11730768_x_at) / Fold change /veh PODN (11730768_x_at) / RFU LINC00158 (11744669_a_at) / Fold change /veh LINC00158 (11744669_a_at) / RFU DUSP10 (11751237_a_at) / Fold change /veh DUSP10 (11751237_a_at) / RFU ID3 (11757404_x_at) / Fold change /veh ID3 (11757404_x_at) / RFU PLEKHG5 (11737974_s_at) / Fold change /veh PLEKHG5 (11737974_s_at) / RFU LRRC4B (11730491_at) / Fold change /veh LRRC4B (11730491_at) / RFU GIMAP4 (11747438_a_at) / Fold change /veh GIMAP4 (11747438_a_at) / RFU KRT8 (11758183_x_at) / Fold change /veh KRT8 (11758183_x_at) / RFU CNN1 (11734310_a_at) / Fold change /veh CNN1 (11734310_a_at) / RFU VPS37D (11726825_at) / Fold change /veh VPS37D (11726825_at) / RFU C10orf10 (11716522_x_at) / Fold change /veh C10orf10 (11716522_x_at) / RFU KIR2DL2 /// KIR2DL4 /// KIR2DL5A /// KIR2DL5B /// KIR2DS1 /// KIR2DS2 /// KIR2DS3 /// KIR2DS4 /// KIR3DL3 /// KIR3DL3 /// KIR3DS1 (11738374_at) / Fold change /veh KIR2DL2 /// KIR2DL4 /// KIR2DL5A /// KIR2DL5B /// KIR2DS1 /// KIR2DS2 /// KIR2DS3 /// KIR2DS4 /// KIR3DL3 /// KIR3DL3 /// KIR3DS1 (11738374_at) / RFU C1QL1 (11718748_at) / Fold change /veh C1QL1 (11718748_at) / RFU TMPRSS4 (11747572_a_at) / Fold change /veh TMPRSS4 (11747572_a_at) / RFU HAMP (11756126_x_at) / Fold change /veh HAMP (11756126_x_at) / RFU RNFT2 (11725882_a_at) / Fold change /veh RNFT2 (11725882_a_at) / RFU NR4A2 (11747474_a_at) / Fold change /veh NR4A2 (11747474_a_at) / RFU ABCC12 (11746883_a_at) / Fold change /veh ABCC12 (11746883_a_at) / RFU TMEM136 (11760407_x_at) / Fold change /veh TMEM136 (11760407_x_at) / RFU CLDN22 /// WWC2 (11732394_at) / Fold change /veh CLDN22 /// WWC2 (11732394_at) / RFU HLA-DPB1 (11760878_x_at) / Fold change /veh HLA-DPB1 (11760878_x_at) / RFU SPINT1 (11716480_a_at) / Fold change /veh SPINT1 (11716480_a_at) / RFU GAP43 (11754022_s_at) / Fold change /veh GAP43 (11754022_s_at) / RFU A4GNT (11735810_at) / Fold change /veh A4GNT (11735810_at) / RFU PRB3 (11715151_x_at) / Fold change /veh PRB3 (11715151_x_at) / RFU TUBB4B (11761932_at) / Fold change /veh TUBB4B (11761932_at) / RFU CAPN14 (11732068_a_at) / Fold change /veh CAPN14 (11732068_a_at) / RFU TMCC2 (11721928_a_at) / Fold change /veh TMCC2 (11721928_a_at) / RFU IRGQ (11745062_a_at) / Fold change /veh IRGQ (11745062_a_at) / RFU FAM174B (11720279_a_at) / Fold change /veh FAM174B (11720279_a_at) / RFU TMPRSS4 (11748680_a_at) / Fold change /veh TMPRSS4 (11748680_a_at) / RFU FAM212B (11763350_a_at) / Fold change /veh FAM212B (11763350_a_at) / RFU PLEKHG5 (11743358_a_at) / Fold change /veh PLEKHG5 (11743358_a_at) / RFU ZSCAN30 (11745921_a_at) / Fold change /veh ZSCAN30 (11745921_a_at) / RFU CMKLR1 (11741424_a_at) / Fold change /veh CMKLR1 (11741424_a_at) / RFU LOC101060620 /// MAPK8IP1 (11723275_at) / Fold change /veh LOC101060620 /// MAPK8IP1 (11723275_at) / RFU SPTSSB (11747773_x_at) / Fold change /veh SPTSSB (11747773_x_at) / RFU PRSS12 (11739890_at) / Fold change /veh PRSS12 (11739890_at) / RFU BIN1 (11741810_x_at) / Fold change /veh BIN1 (11741810_x_at) / RFU WNT11 (11732464_a_at) / Fold change /veh WNT11 (11732464_a_at) / RFU C10orf10 (11716521_a_at) / Fold change /veh C10orf10 (11716521_a_at) / RFU C5orf56 (11738089_at) / Fold change /veh C5orf56 (11738089_at) / RFU CYB561 (11721691_x_at) / Fold change /veh CYB561 (11721691_x_at) / RFU ANKRD19P (11752326_a_at) / Fold change /veh ANKRD19P (11752326_a_at) / RFU OR2T12 /// OR2T33 /// OR2T8 (11738714_s_at) / Fold change /veh OR2T12 /// OR2T33 /// OR2T8 (11738714_s_at) / RFU VCAN (11748164_a_at) / Fold change /veh VCAN (11748164_a_at) / RFU JSRP1 (11732532_at) / Fold change /veh JSRP1 (11732532_at) / RFU KRTAP10-11 (11738290_x_at) / Fold change /veh KRTAP10-11 (11738290_x_at) / RFU MYO3A (11730013_a_at) / Fold change /veh MYO3A (11730013_a_at) / RFU EBF3 (11725865_a_at) / Fold change /veh EBF3 (11725865_a_at) / RFU CAMK2N1 (11719241_x_at) / Fold change /veh CAMK2N1 (11719241_x_at) / RFU C5orf56 (11738088_a_at) / Fold change /veh C5orf56 (11738088_a_at) / RFU OLFML3 (11715873_a_at) / Fold change /veh OLFML3 (11715873_a_at) / RFU LOC100653217 /// NTM (11731650_a_at) / Fold change /veh LOC100653217 /// NTM (11731650_a_at) / RFU MAPK11 (11762145_a_at) / Fold change /veh MAPK11 (11762145_a_at) / RFU FIZ1 (11724087_x_at) / Fold change /veh FIZ1 (11724087_x_at) / RFU OASL (11726364_x_at) / Fold change /veh OASL (11726364_x_at) / RFU SOX15 (11748057_x_at) / Fold change /veh SOX15 (11748057_x_at) / RFU CD79A (11719716_a_at) / Fold change /veh CD79A (11719716_a_at) / RFU HIST1H1D (11736915_at) / Fold change /veh HIST1H1D (11736915_at) / RFU CASKIN2 (11723855_a_at) / Fold change /veh CASKIN2 (11723855_a_at) / RFU LOC730098 (11760151_x_at) / Fold change /veh LOC730098 (11760151_x_at) / RFU OR4N2 (11742367_at) / Fold change /veh OR4N2 (11742367_at) / RFU PRRT2 (11749266_a_at) / Fold change /veh PRRT2 (11749266_a_at) / RFU SNX32 (11753110_a_at) / Fold change /veh SNX32 (11753110_a_at) / RFU CDHR5 (11726645_a_at) / Fold change /veh CDHR5 (11726645_a_at) / RFU RCAN1 (11760418_a_at) / Fold change /veh RCAN1 (11760418_a_at) / RFU FAM167A (11723789_a_at) / Fold change /veh FAM167A (11723789_a_at) / RFU FAM26E (11764081_at) / Fold change /veh FAM26E (11764081_at) / RFU ISYNA1 (11749810_s_at) / Fold change /veh ISYNA1 (11749810_s_at) / RFU ACY1 (11761880_at) / Fold change /veh ACY1 (11761880_at) / RFU 11764098_at / Fold change /veh 11764098_at / RFU SAMD14 (11745864_x_at) / Fold change /veh SAMD14 (11745864_x_at) / RFU NPB (11741838_a_at) / Fold change /veh NPB (11741838_a_at) / RFU TMPRSS6 (11731388_a_at) / Fold change /veh TMPRSS6 (11731388_a_at) / RFU KRTAP10-2 (11738614_at) / Fold change /veh KRTAP10-2 (11738614_at) / RFU ARHGAP8 /// PRR5-ARHGAP8 (11727945_x_at) / Fold change /veh ARHGAP8 /// PRR5-ARHGAP8 (11727945_x_at) / RFU KRTAP5-7 /// NADSYN1 (11734609_at) / Fold change /veh KRTAP5-7 /// NADSYN1 (11734609_at) / RFU RASL12 (11751679_a_at) / Fold change /veh RASL12 (11751679_a_at) / RFU CDKN2B (11736163_a_at) / Fold change /veh CDKN2B (11736163_a_at) / RFU PRF1 (11729649_at) / Fold change /veh PRF1 (11729649_at) / RFU, ZNF638 /// ZNF638-IT1 / Fold change vs veh, ZNF638 /// ZNF638-IT1 / RFU, PANK3 / Fold change vs veh, PANK3 / RFU, SH3YL1 / Fold change vs veh, SH3YL1 / RFU, ZEB2 / Fold change vs veh, ZEB2 / RFU, NRIP1 / Fold change vs veh, NRIP1 / RFU, PTTG1IP / Fold change vs veh, PTTG1IP / RFU, CAPN2 / Fold change vs veh, CAPN2 / RFU, MED14 / Fold change vs veh, MED14 / RFU, SNORA58 / Fold change vs veh, SNORA58 / RFU, C1orf63 / Fold change vs veh, C1orf63 / RFU, LRRFIP1 / Fold change vs veh, LRRFIP1 / RFU, NDUFAF7 / Fold change vs veh, NDUFAF7 / RFU, SLC12A2 / Fold change vs veh, SLC12A2 / RFU, IBTK / Fold change vs veh, IBTK / RFU, ESF1 / Fold change vs veh, ESF1 / Fold change vs veh, TMEM50B / RFU, TAOK1 / Fold change vs veh, TAOK1 / RFU, ACBD3 / Fold change vs veh, ACBD3 / RFU, TMA16 / Fold change vs veh, TMA16 / RFU, RWDD3 / Fold change vs veh, RWDD3 / RFU, BCAT1 / Fold change vs veh, BCAT1 / RFU, EDEM3 / Fold change vs veh, EDEM3 / RFU, TMEM33 / Fold change vs veh, TMEM33 / RFU, WDR75 / Fold change vs veh, WDR75 / RFU, AHCTF1 / Fold change vs veh, AHCTF1 / RFU, TFRC / Fold change vs veh, TFRC / RFU, ZDHHC17 / Fold change vs veh, ZDHHC17 / RFU, NOM1 / Fold change vs veh, NOM1 / RFU, ARL8B / Fold change vs veh, ARL8B / RFU, ZBTB11 / Fold change vs veh, ZBTB11 / RFU, TAMM41 / Fold change vs veh, TAMM41 / RFU, KIAA1704 /// LOC100996395 / Fold change vs veh, KIAA1704 /// LOC100996395 / RFU, ING1 / Fold change vs veh, ING1 / RFU, TRMT61B / Fold change vs veh, TRMT61B / RFU, FUBP3 / Fold change vs veh, FUBP3 / RFU, TP53 / Fold change vs veh, TP53 / RFU, TNKS2 / Fold change vs veh, TNKS2 / RFU, ZFP14 / Fold change vs veh, ZFP14 / RFU, ACTR2 / Fold change vs veh, ACTR2 / RFU, PPP3R1 / Fold change vs veh, PPP3R1 / RFU, PIK3R1 / Fold change vs veh, PIK3R1 / RFU, HNRNPA1 / Fold change vs veh, HNRNPA1 / RFU, RNF170 / Fold change vs veh, RNF170 / RFU, ZNF28 / Fold change vs veh, ZNF28 / RFU, RNGTT / Fold change vs veh, RNGTT / RFU, OGT / Fold change vs veh, OGT / RFU, BRD1 / Fold change vs veh, BRD1 / RFU, MARS / Fold change vs veh, MARS / RFU, ZNF655 / Fold change vs veh, ZNF655 / RFU, FAHD1 / Fold change vs veh, FAHD1 / RFU, BDP1 / Fold change vs veh, BDP1 / RFU, LRRCC1 / Fold change vs veh, LRRCC1 / RFU, ARID1A / Fold change vs veh, ARID1A / RFU, ZNF146 / Fold change vs veh, ZNF146 / RFU, ZNF330 / Fold change vs veh, ZNF330 / RFU, GPN3 / Fold change vs veh, GPN3 / RFU, C9orf123 / Fold change vs veh, C9orf123 / RFU, N4BP2L2 / Fold change vs veh, N4BP2L2 / RFU, ARFIP1 / Fold change vs veh, ARFIP1 / RFU, FAM179B / Fold change vs veh, FAM179B / RFU, BCL10 / Fold change vs veh, BCL10 / RFU, UHRF1BP1L / Fold change vs veh, UHRF1BP1L / RFU, BET1 / Fold change vs veh, BET1 / RFU, CNOT2 / Fold change vs veh, CNOT2 / RFU, ZNF268 / Fold change vs veh, ZNF268 / Fold change vs veh, ZNF507 / RFU, DGCR2 / Fold change vs veh, DGCR2 / RFU, WDSUB1 / Fold change vs veh, WDSUB1 / Fold change vs veh, HSP90B1 /// MIR3652 / RFU, ADSS / Fold change vs veh, ADSS / RFU, GK / Fold change vs veh, GK / RFU, ZNF148 / Fold change vs veh, ZNF148 / RFU, TAF9 / Fold change vs veh, TAF9 / RFU, SLC1A5 / Fold change vs veh, SLC1A5 / RFU, SLMO2 / Fold change vs veh, SLMO2 / RFU, ABCC4 / Fold change vs veh, ABCC4 / RFU, LOC101060439 /// RAP1B / Fold change vs veh, LOC101060439 /// RAP1B / RFU, RFX7 / Fold change vs veh, RFX7 / RFU, GTPBP10 / Fold change vs veh, GTPBP10 / RFU, CNEP1R1 / Fold change vs veh, CNEP1R1 / RFU, BIVM-ERCC5 /// ERCC5 / Fold change vs veh, BIVM-ERCC5 /// ERCC5 / RFU, ILF3 / Fold change vs veh, ILF3 / RFU 11762660_at / Fold change /veh 11762660_at / RFU VCAN (11757783_s_at) / Fold change /veh VCAN (11757783_s_at) / RFU DDX43 (11728927_at) / Fold change /veh DDX43 (11728927_at) / RFU KRT8 (11758188_x_at) / Fold change /veh KRT8 (11758188_x_at) / RFU NKD1 (11759106_at) / Fold change /veh NKD1 (11759106_at) / RFU SRD5A1 (11742802_a_at) / Fold change /veh SRD5A1 (11742802_a_at) / RFU TPSAB1 /// TPSB2 (11721975_s_at) / Fold change /veh TPSAB1 /// TPSB2 (11721975_s_at) / RFU GSTM3 (11746129_a_at) / Fold change /veh GSTM3 (11746129_a_at) / RFU IL23R (11737362_x_at) / Fold change /veh IL23R (11737362_x_at) / RFU TMEM51 (11727254_a_at) / Fold change /veh TMEM51 (11727254_a_at) / RFU PIWIL2 (11732686_x_at) / Fold change /veh PIWIL2 (11732686_x_at) / RFU ORM1 (11744905_x_at) / Fold change /veh ORM1 (11744905_x_at) / RFU CCDC152 (11743942_at) / Fold change /veh CCDC152 (11743942_at) / RFU ECM1 (11717891_a_at) / Fold change /veh ECM1 (11717891_a_at) / RFU IL23R (11748794_a_at) / Fold change /veh IL23R (11748794_a_at) / RFU TNFAIP8L3 (11732012_x_at) / Fold change /veh TNFAIP8L3 (11732012_x_at) / RFU MBOAT4 (11741988_at) / Fold change /veh MBOAT4 (11741988_at) / RFU 11764193_at / Fold change /veh 11764193_at / RFU TMEM53 (11763286_at) / Fold change /veh TMEM53 (11763286_at) / RFU MAGEB2 (11727129_at) / Fold change /veh MAGEB2 (11727129_at) / RFU TMEM200A (11744735_a_at) / Fold change /veh TMEM200A (11744735_a_at) / RFU CCDC152 (11751479_a_at) / Fold change /veh CCDC152 (11751479_a_at) / RFU FAM211A (11726209_a_at) / Fold change /veh FAM211A (11726209_a_at) / RFU RGS16 (11746705_a_at) / Fold change /veh RGS16 (11746705_a_at) / RFU VCAN (11755009_s_at) / Fold change /veh VCAN (11755009_s_at) / RFU RHOB (11743442_s_at) / Fold change /veh RHOB (11743442_s_at) / RFU RGS16 (11720943_a_at) / Fold change /veh RGS16 (11720943_a_at) / RFU RGS16 (11720944_at) / Fold change /veh RGS16 (11720944_at) / RFU, VPS4B / Fold change vs veh, VPS4B / RFU, CREB1 / Fold change vs veh, CREB1 / RFU, DNAJC13 / Fold change vs veh, DNAJC13 / RFU, GNAQ / Fold change vs veh, GNAQ / RFU, CDK5R1 / Fold change vs veh, CDK5R1 / RFU, ZRANB3 / Fold change vs veh, ZRANB3 / RFU, CUL4A / Fold change vs veh, CUL4A / RFU, CCNY / Fold change vs veh, CCNY / RFU, UFL1 / Fold change vs veh, UFL1 / RFU, COG3 / Fold change vs veh, COG3 / RFU, DIAPH2 / Fold change vs veh, DIAPH2 / RFU, SKA2 / Fold change vs veh, SKA2 / RFU, AFF3 / Fold change vs veh, AFF3 / RFU, LMF1 / Fold change vs veh, LMF1 / RFU, IPO11 / Fold change vs veh, IPO11 / RFU, DFFB / Fold change vs veh, DFFB / RFU, FOXP1 / Fold change vs veh, FOXP1 / RFU, CARD8 / Fold change vs veh, CARD8 / RFU, STRN3 / Fold change vs veh, STRN3 / RFU, ADK / Fold change vs veh, ADK / RFU, RASSF2 / Fold change vs veh, RASSF2 / RFU, WIPF1 / Fold change vs veh, WIPF1 / RFU, LARP1B / Fold change vs veh, LARP1B / RFU, RASA1 / Fold change vs veh, RASA1 / RFU, RB1 / Fold change vs veh, RB1 / RFU, PPFIA1 / Fold change vs veh, PPFIA1 / RFU, MAT2A / Fold change vs veh, MAT2A / RFU, CCT5 / Fold change vs veh, CCT5 / RFU, WDR92 / Fold change vs veh, WDR92 / RFU, CUX1 / Fold change vs veh, CUX1 / RFU, TTC7A / Fold change vs veh, TTC7A / RFU, TMEM135 / Fold change vs veh, TMEM135 / RFU, DEPTOR / Fold change vs veh, DEPTOR / RFU, CPM / Fold change vs veh, CPM / RFU, DNAJB6 / Fold change vs veh, DNAJB6 / RFU, CACNA2D3 / Fold change vs veh, CACNA2D3 / RFU, DTX4 / Fold change vs veh, DTX4 / RFU, TFCP2 / Fold change vs veh, TFCP2 / RFU, GMCL1 /// GMCL1P1 / Fold change vs veh, GMCL1 /// GMCL1P1 / RFU, AEBP2 / Fold change vs veh, AEBP2 / RFU, SNHG1 /// SNORD22 /// SNORD25 /// SNORD26 /// SNORD27 /// SNORD28 /// SNORD29 /// SNORD31 / Fold change vs veh, SNHG1 /// SNORD22 /// SNORD25 /// SNORD26 /// SNORD27 /// SNORD28 /// SNORD29 /// SNORD31 / Fold change (Aza/veh), C12orf56 (ProbeSet 11735607_a_at) / Fold change (ACY-1035/veh), C12orf56 (ProbeSet 11735607_a_at) / Fold change (Aza/veh), FGFR1OP (ProbeSet 11751329_s_at) / Fold change (ACY-1035/veh), FGFR1OP (ProbeSet 11751329_s_at) / Fold change (Aza/veh), VPS36 (ProbeSet 11739960_a_at) / Fold change (ACY-1035/veh), VPS36 (ProbeSet 11739960_a_at) / RFU SYPL1 (11715823_x_at) / Fold change /veh SYPL1 (11715823_x_at) / RFU IGFBP7 (11715501_s_at) / Fold change /veh IGFBP7 (11715501_s_at) / RFU REEP3 (11722064_at) / Fold change /veh REEP3 (11722064_at) / RFU IGLL1 (11728026_x_at) / Fold change /veh IGLL1 (11728026_x_at): dose or concentration left out as unconfirmed
Settings: MV-4-11 cells, 48 hours

With `Nc1ccc(-c2cccs2)cc1NC(=O)c1ccc2c(c1)cc(C1CC1)n2CCN1CCOCC1` [ACY-1035] the “RFU PRRT2 (11749266_a_at)” value was 47.30 RFU.
